Experimental data as given in ChEMBL document CHEMBL1201862, “PubChem BioAssay data set” (2004).
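48-hour exposure; five concentrations; linearly interpolated endpoints. Here, GI50 denotes the concentration required for 50% inhibition of growth.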 The source made the active and inactive calls. Cut-off read from the data, not from the text of the source: active = GI50 up to about 1.1 µM and inactive = higher.

How the values were obtained:
Experiment in all cases: NCI tumour cell line growth inhibition, 48 h
K562 = system: K562
M19-MEL = system: M19-MEL
OVCAR-4 = system: OVCAR-4
SNB-19 = system: SNB-19
SK-MEL-5 = system: SK-MEL-5
COLO 205 = system: COLO 205
A549 = system: A549
UACC-257 = system: UACC-257
LOX IMVI = system: LOX IMVI
HL-60 = system: HL-60
HCC 2998 = system: HCC 2998
HCT-116 = system: HCT-116
SK-MEL-28 = system: SK-MEL-28
786-0 = system: 786-0
NCI-H522 = system: NCI-H522
NCI/ADR-RES = system: NCI/ADR-RES
SF-295 = system: SF-295
UO-31 = system: UO-31
SNB-78 = system: SNB-78
IGROV-1 = system: IGROV-1
EKVX = system: EKVX
BT-549 = system: BT-549
SF-268 = system: SF-268
UACC-62 = system: UACC-62
HOP-18 = system: HOP-18
DMS-114 = system: DMS-114
LXFL 529 = system: LXFL 529
SNB-75 = system: SNB-75
MCF7 = system: MCF7
DLD-1 = system: DLD-1
DMS-273 = system: DMS-273
DU-145 = system: DU-145
NCI-H226 = system: NCI-H226
ACHN = system: ACHN
MDA-N = system: MDA-N
MDA-MB-435 = system: MDA-MB-435
TK-10 = system: TK-10
NCI-H460 = system: NCI-H460
OVCAR-3 = system: OVCAR-3
SF-539 = system: SF-539
NCI-H23 = system: NCI-H23
T47D = system: T47D
SW-620 = system: SW-620
SR = system: SR
RXF 393 = system: RXF 393
U-251 = system: U-251
HOP-92 = system: HOP-92
MOLT-4 = system: MOLT-4
MDA-MB-231 = system: MDA-MB-231
OVCAR-5 = system: OVCAR-5
Malme-3M = system: Malme-3M
M14 = system: M14
SK-MEL-2 = system: SK-MEL-2
RXF 631 = system: RXF 631
HT-29 = system: HT-29
SN12C = system: SN12C
HCT-15 = system: HCT-15
KM-20L2 = system: KM-20L2
Hs-578T = system: Hs-578T
XF498 = system: XF498

## COc1cccc2c1[C@H]1CO[C@H]3C4C[C@H](C(=O)O)C([C@@H](C2)N13)N4C (stereo not given in full)
K562
  GI50: 1.47 µM (inactive)
M19-MEL
  GI50: 3.64 µM (inactive)
OVCAR-4
  GI50: 5 µM (inactive)
SNB-19
  GI50: 2.91 µM (inactive)
SK-MEL-5
  GI50: 1.88 µM (inactive)
COLO 205
  GI50: 1.6 µM (inactive)
A549
  GI50: 8.18 µM (inactive)
UACC-257
  GI50: 1.91 µM (inactive)
LOX IMVI
  GI50: 1.36 µM (inactive)
HL-60
  GI50: 1.62 µM (inactive)
HCC 2998
  GI50: 2.58 µM (inactive)
HCT-116
  GI50: 2.53 µM (inactive)
SK-MEL-28
  GI50: 2.1 µM (inactive)
786-0
  GI50: 1.3 µM (inactive)
NCI-H522
  GI50: 294 nM (active)
NCI/ADR-RES
  GI50: 764 nM (active)
SF-295
  GI50: 7.1 µM (inactive)
UO-31
  GI50: 1.54 µM (inactive)
SNB-78
  GI50: 3.72 µM (inactive)
IGROV-1
  GI50: 4.51 µM (inactive)
EKVX
  GI50: 4.74 µM (inactive)
BT-549
  GI50: 116 nM (active)
SF-268
  GI50: 1.79 µM (inactive)
UACC-62
  GI50: 1.12 µM (inactive)
HOP-18
  GI50: 6.12 µM (inactive)
DMS-114
  GI50: 2.22 µM (inactive)
LXFL 529
  GI50: 2.27 µM (inactive)
SNB-75
  GI50: 1.48 µM (inactive)
MCF7
  GI50: 491 nM (active)
DLD-1
  GI50: 2.84 µM (inactive)
DMS-273
  GI50: 3.6 µM (inactive)
DU-145
  GI50: 42.3 nM (active)
NCI-H226
  GI50: 1.29 µM (inactive)
ACHN
  GI50: 3.85 µM (inactive)
MDA-N
  GI50: 170 nM (active)
MDA-MB-435
  GI50: 53.3 nM (active)
TK-10
  GI50: 3.28 µM (inactive)
NCI-H460
  GI50: 3.93 µM (inactive)
OVCAR-3
  GI50: 1.38 µM (inactive)
SF-539
  GI50: 1.56 µM (inactive)
NCI-H23
  GI50: 1.79 µM (inactive)
T47D
  GI50: 242 nM (active)
SW-620
  GI50: 1.98 µM (inactive)
SR
  GI50: 1.14 µM (inactive)
RXF 393
  GI50: 1.19 µM (inactive)
U-251
  GI50: 1.41 µM (inactive)
HOP-92
  GI50: 1.66 µM (inactive)
MOLT-4
  GI50: 1.69 µM (inactive)
MDA-MB-231
  GI50: 205 nM (active)
OVCAR-5
  GI50: 2.37 µM (inactive)
Malme-3M
  GI50: 2.61 µM (inactive)
M14
  GI50: 4.99 µM (inactive)
SK-MEL-2
  GI50: 1.08 µM (active)
RXF 631
  GI50: > 10 µM (inactive)
HT-29
  GI50: 2.13 µM (inactive)
SN12C
  GI50: 1.99 µM (inactive)
HCT-15
  GI50: 1670 nM
KM-20L2
  GI50: 3.24 µM (inactive)
Hs-578T
  GI50: 76.9 nM (active)
XF498
  GI50: 2.08 µM (inactive)
